Drawing on ChEMBL document CHEMBL5727678, “CARM1 inhibitors and uses thereof” (2020), this text covers IC50 for three compounds.

This assay is described as follows: Enzyme Assay: The assays were all performed in a buffer consisting of 20 mM Bicine (pH=7.6), 1 mM TCEP, 0.005% BSG, and 0.002% Tween 20, prepared on the day of use. Compounds in 100% DMSO (1 ul) were spotted into a polypropylene 384-well V-bottom plates using a Platemate Plus outfitted with a 384-channel head . DMSO (1 ul) was added to Columns 11, 12, 23, 24, rows A-H for the maximum signal control and 1 ul of SAH, a known product and inhibitor of CARM1, was added to columns 11, 12, 23, 24, rows I-P for the minimum signal control. A cocktail (40 ul) containing the CARM1 enzyme was added by Multidrop Combi. The compounds were allowed to incubate with CARM1 for 30 min at room temperature, then a cocktail (10 ul) containing 3H-SAM and peptide was added to initiate the reaction (final volume=51 ul). The final concentrations of the components were as follows: CARM1 was 0.25 nM, 3H-SAM was 30 nM, peptide was 250 nM, SAH in the minimum signal control wells was 1 mM, and the DMSO concentration was 2%. The assays were stopped by the addition of non-radiolabeled SAM (10 ul) to a final concentration of 300 uM, which dilutes the 3H-SAM to a level where its incorporation into the peptide substrate is no longer detectable. 50 ul of the reaction in the 384-well polypropylene plate was then transferred to a 384-well Flashplate and the biotinylated peptides were allowed to bind to the streptavidin surface for at least 1 hour before being washed once with 0.1% Tween20 in a Biotek ELx405 plate washer.

The structures appear in SMILES notation.

As for `CNC[C@@H](O)COc1ccc(Cl)c(-c2nc(-c3c(C)noc3C)c(C)c(N3Cc4c(C)nn(C)c4C3)n2)c1`, the IC50 was less than 0.1 µM.
As to `CNCC(O)COc1cccc(-c2nc(-c3c(C)noc3C)cc(N3C[C@@H]4C[C@H]3CN4C(=O)OC)n2)c1` (stereo partly drawn), the IC50 is less than 0.1 µM.
Next, `CNCC(O)COc1cccc(-c2nc(-c3c(C)noc3C)c(C)c(N3CCO[C@H](CNC)C3)n2)c1` (stereo partly drawn): less than 0.1 µM.

One may read the IC50 as the concentration that inhibits the measured activity by half.
